Test results as given in US9918479B2, “Control of phytopathogenic microorganisms with Pseudomonas sp. and substances and compositions derived therefrom” (priority 2012, dated 2018).

System: CL145A (ATCC 55799)
Assay: Antibiotic resistance profile, antibiotic discs on Mueller-Hinton agar
Conditions: 72 hours incubation
Protocol: One glycerol stock vial of CL145A was equally distributed onto Mueller-Hinton Agar plates (100 μl per plate) and spread on the plate using a sterile cell spreader. Antibiotic discs were then placed onto the plates along with a blank sterile disc. Plates were incubated at 25° C. in the dark for 72 hours.

Compound | CL145A resistant or sensitive to the antibiotic (growth inhibited by the antibiotic disc)
CC1(C)S[C@@H]2[C@H](NC(=O)[C@H](N)c3ccccc3)C(=O)N2[C@H]1C(=O)O [Ampicillin] | resistant
CO/N=C(\C(=O)N[C@@H]1C(=O)N2C(C(=O)O)=C(COC(N)=O)CS[C@H]12)c1ccco1 [Cefuroxime] | resistant
O=C(N[C@H](CO)[C@H](O)c1ccc([N+](=O)[O-])cc1)C(Cl)Cl [Chloramphenicol] | resistant
CC[C@H]1OC(=O)[C@H](C)[C@@H](O[C@H]2C[C@@](C)(OC)[C@@H](O)[C@H](C)O2)[C@H](C)[C@@H](O[C@@H]2O[C@H](C)C[C@H](N(C)C)[C@H]2O)[C@](C)(O)C[C@@H](C)C(=O)[C@H](C)[C@@H](O)[C@]1(C)O [Erythromycin] | resistant
CCN1CCN(C(=O)N[C@@H](C(=O)N[C@@H]2C(=O)N3[C@@H]2SC(C)(C)[C@@H]3C(=O)O)c2ccccc2)C(=O)C1=O [Piperacillin] | sensitive
[H]/N=C(/N)N[C@H]1[C@H](O)[C@@H](O)[C@H](O[C@@H]2O[C@@H](C)[C@](O)(C=O)[C@H]2O[C@@H]2O[C@@H](CO)[C@H](O)[C@@H](O)[C@@H]2NC)[C@@H](N/C(N)=N\[H])[C@@H]1O [Streptomycin] | resistant
Gentamicin | sensitive
Penicillin | resistant
